Laboratory results reported in US6893641B2, “Ganoderma lucidum spores for treatment of autoimmune diseases” (priority 1999, dated 2005).
Entries after “also recorded” stand apart in the source; their conditions may differ. Like-named read-outs stand apart in the source and are kept apart here. Marks after values point to notes of the source that are not given here.

Legend:
TA98 = test: Ames test, Petri dish mixing method, TA98; type: cell-based; conditions: TA98 −S9, positive control, dose not given
Description: (§1) Test bacteria (TA97, TA98, TA100, TA102) were supplied by the Bureau of Food Inspection, Department of Health in Beijing. […] Using the Petri dish mixing method, two independent tests were carried out.

TA97 = test: Ames test, Petri dish mixing method, TA97; type: cell-based; conditions: TA97 −S9, positive control, dose not given
Description: as §1

NIH mice [1] = conditions: for No. of micronuclei: 10000 cells
Description: Test material: The GLSs were brown powders. After going through a 100 mesh sieve, 120 g of the samples were mixed with 300 mL distilled water (to give a concentration of 40 g/dL) and stirred for 15 min in a stirrer at 7000 rpm. They were then bottled, underwent disinfection and antiseptic treatments, and 1 mL of a pasty liquid was obtained, which was about 0.4 g of the samples. Direct gavage was carried out two times per day.
Mouse Bone Marrow Micronucleus Test:
Seventy (70) NIH mice with body weights of 20-23 g were used in this test. The mice were divided into 7 groups and testing was carried out according to the methods of the Toxicological Evaluation Procedures for Food Safety. Gavage was carried out twice, and 6 hrs after the second force feeding, the mice were sacrificed, and both of the femurs were taken out for the preparation of a biopsy, staining and examination under a microscope.

NIH mice [2] = test: Mouse sperm deformation test; type: in vivo; conditions: 0.04 g/kg, abdominal injections
Text: 3. Sperm Deformation Test
Twenty five (25) NIH mice with body weights of 18-22 g, randomly divided into 5 groups and continuously force fed for 5 days (the Endoxan positive group received abdominal injections), were used in this test. Thirty five (35) days later, the animals were sacrificed and both testicles were taken out for the standard biopsy preparation and staining. Five thousand (5000) whole sperm from each group were examined under an oil immersion lens and the sperm deformation percentage was calculated.

TA100 = test: Ames test, Petri dish mixing method, TA100; type: cell-based; conditions: TA100 −S9, positive control, dose not given
Description: as §1

SLE mice = test: T-lymphocyte populations in SLE mice under different treatments; type: in vivo
Description: Spleens, lymph nodes, and thymus glands were collected under sterile conditions from the DBA/2 or BALB/C mice. Lymphocytes were then isolated and washed with Hanks solution 3 times. Cells were stained with 0.5% trypan blue and examined for viability. The lymphocytes were then adjusted to the desired concentrations.
Kidney tissues were sampled and undergone morphologic analyses under light scope.
Statistical analyses and t test, were carried out using SPAAS 10.0 computer software.

[3] = blood at 168 hours after the first dosing, daily oral, GLSs 0.8 g/kg/day, prednisolone solution 50 mL/kg/day

Compound: CCN(CC)CCCC(C)Nc1c2ccc(Cl)cc2nc2ccc(OC)cc12 (centres unmarked) [Atabrine]
- colonies due to reverse mutation (TA98): >1433
- colonies due to reverse mutation (TA97): >1500

Compound: O=P1(N(CCCl)CCCl)NCCCO1 (centres unmarked) [Endoxan]
- No. of micronuclei (NIH mice [1]; listed as printed '(0.06)' g/kg under Endoxan): 249
- Percentage of micronuclei (NIH mice [1]; listed as printed '(0.06)' g/kg under Endoxan, p < 0.001 vs other groups): 24.9** 0/00
- Percentage of micronuclei (NIH mice [1]; listed as printed '^ Endoxan'): 1.2 0/00
- No. of micronuclei (NIH mice [1]; listed as printed '^ Endoxan'): 12
- No of deformed sperm (count) (NIH mice [2]; 5000 sperm): 98
- Percentage deformation (NIH mice [2]; p < 0.01 vs other groups): 72.80**

Compound: [N-]=[N+]=[N-] [Sodium azide]
- colonies due to reverse mutation (TA100): >1500

Compound: C[C@]12C=CC(=O)C=C1CC[C@@H]1[C@@H]2[C@@H](O)C[C@@]2(C)[C@H]1CC[C@]2(O)C(=O)CO [prednisolone]
- T %, Th %, Ts % and Th/Ts ratio compared with control groups (SLE mice; 168 hours after the first dosing): much better than those in the SLE control group; also recorded: improved the T cell counts in similar degree as those of GLSs
- T(%) (SLE mice; [3]): 51.30 ± 4.23%
- Th (%) (SLE mice; [3]): 31.44 ± 3.21%
- Th/Ts (SLE mice; [3]): 1.12 ± 0.31
- Ts (%) (SLE mice; [3]): 28.43 ± 3.12%
